From publication PMC10922308 (Cell chemical biology, 2023)

Tests used:
Format in all cases: cell-based
PIM1 [1] = target: T1, PIM1 (Homo sapiens, UniProt P11309)
PIM1 [2] = target: T1, PIM1; assay: PROTAC degradation immunoblot in PC3-dox-PIM1 cells
PIM2 = PIM2 (Homo sapiens, UniProt Q9P1W9); assay: PROTAC degradation immunoblot in PC3 cells
PIM3 = PIM3 (Homo sapiens, UniProt Q86V86); assay: PROTAC degradation immunoblot in PC3 cells
PIM1 [3] = target: T1, PIM1; assay: PROTAC degradation immunoblot in PC3-dox-PIM1 cells; remark: listed apart in the source

T1 sequence (P11309 whole entry): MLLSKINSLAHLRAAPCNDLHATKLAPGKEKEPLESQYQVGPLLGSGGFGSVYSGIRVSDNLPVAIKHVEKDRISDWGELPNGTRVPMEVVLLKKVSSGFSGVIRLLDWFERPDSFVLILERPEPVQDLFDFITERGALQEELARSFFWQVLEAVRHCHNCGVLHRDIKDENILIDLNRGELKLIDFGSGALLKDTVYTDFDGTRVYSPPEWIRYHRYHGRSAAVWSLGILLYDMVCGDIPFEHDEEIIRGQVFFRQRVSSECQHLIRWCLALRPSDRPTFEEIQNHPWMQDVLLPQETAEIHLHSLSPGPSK
T1 sequence (P40337 whole entry partner): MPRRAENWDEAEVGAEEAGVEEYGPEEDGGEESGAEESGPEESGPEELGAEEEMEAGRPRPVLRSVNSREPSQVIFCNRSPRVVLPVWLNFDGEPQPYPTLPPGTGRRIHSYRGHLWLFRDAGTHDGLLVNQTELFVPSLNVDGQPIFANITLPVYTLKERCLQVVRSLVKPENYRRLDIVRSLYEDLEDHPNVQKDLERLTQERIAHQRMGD
Chain of PIM3 (P40337 whole entry partner): as the sequence (P40337 whole entry partner) above
Chain of PIM2 (Q9P1W9 whole entry): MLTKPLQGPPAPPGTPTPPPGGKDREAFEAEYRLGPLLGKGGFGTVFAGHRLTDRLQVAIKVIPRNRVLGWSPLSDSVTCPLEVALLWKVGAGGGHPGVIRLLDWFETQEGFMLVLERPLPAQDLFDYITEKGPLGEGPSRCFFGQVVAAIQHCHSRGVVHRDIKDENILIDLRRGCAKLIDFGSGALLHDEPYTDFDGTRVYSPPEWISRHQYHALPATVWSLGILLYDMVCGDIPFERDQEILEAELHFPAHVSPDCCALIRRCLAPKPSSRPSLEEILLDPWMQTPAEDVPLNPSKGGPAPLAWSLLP
Chain of PIM2 (P40337 whole entry partner): as the sequence (P40337 whole entry partner) above

Structure (SMILES): Cc1ncsc1-c1ccc([C@H](C)NC(=O)[C@@H]2C[C@@H](O)CN2C(=O)[C@@H](NC(=O)CCCCCCC(=O)N[C@@H]2CC(c3ccncc3NC(=O)c3ccc(F)c(-c4c(F)cccc4F)n3)C[C@H](C)C2)C(C)(C)C)cc1 (stereo partly drawn) [PIM447-VHL-01, N^1-((1S,5S)-3-(3-(6-(2,6-difluorophenyl)-5-fluoropicolinamido)pyridin-4-yl)-5-methylcyclohexyl)-N^8-((S)-1-((2S,4R)-4-hydroxy-2-(((S)-1-(4-(4-methylthiazol-5-yl)phenyl)ethyl)carbamoyl)pyrrolidin-1-yl)-3,3-dimethyl-1-oxobutan-2-yl)octanediamide]
- PROTAC degradation immunoblot in PC3 cells, with VH298, MG-132, MLN4924, cis-epi (PIM1 [1]): 0.75 µM

Structure (SMILES): Cc1ncsc1-c1ccc([C@H](C)NC(=O)[C@@H]2C[C@@H](O)CN2C(=O)[C@@H](NC(=O)CCOCCOCCN2CCC(CNc3ccc4ncc(-c5cccc(OC(F)(F)F)c5)n4n3)CC2)C(C)(C)C)cc1 [SGI-1776-VHL-01, (2S,4R)-1-((S)-3,3-dimethyl-2-(3-(2-(2-(4-(((3-(3-(trifluoromethoxy)phenyl)imidazo[1,2-b]pyridazin-6-yl)amino)methyl)piperidin-1-yl)ethoxy)ethoxy)propanamido)butanoyl)-4-hydroxy-N-((S)-1-(4-(4-methylthiazol-5-yl)phenyl)ethyl)pyrrolidine-2-carboxamide]
- PROTAC degradation immunoblot in PC3-dox-PIM1 cells (hook effect seen) (PIM1 [2]): 0.75 µM

Structure (SMILES): Cc1ncsc1-c1ccc([C@H](C)NC(=O)[C@@H]2C[C@@H](O)CN2C(=O)[C@@H](NC(=O)CCCCCCC(=O)N2CCC(CNc3ccc4ncc(-c5cccc(OC(F)(F)F)c5)n4n3)CC2)C(C)(C)C)cc1 [SGI-1776-VHL-02, (2S,4R)-1-((S)-3,3-dimethyl-2-(8-oxo-8-(4-(((3-(3-(trifluoromethoxy)phenyl)imidazo[1,2-b]pyridazin-6-yl)amino)methyl)piperidin-1-yl)octanamido)butanoyl)-4-hydroxy-N-((S)-1-(4-(4-methylthiazol-5-yl)phenyl)ethyl)pyrrolidine-2-carboxamide]
- PROTAC degradation immunoblot in PC3 cells (PIM2): 3.75 µM
- PROTAC degradation immunoblot in PC3 cells (PIM3): 1.5 µM
- PROTAC degradation immunoblot in PC3 cells, with VH298, MG-132, MLN4924, cis-epi (PIM1 [1]): 0.75 µM

Structure (SMILES): Cc1ncsc1-c1ccc([C@H](C)NC(=O)[C@@H]2C[C@@H](O)CN2C(=O)[C@@H](NC(=O)CCCCCCC(=O)N[C@H]2CCCN(c3c(/C=C4\SC(=O)NC4=O)cccc3-c3ccccc3)C2)C(C)(C)C)cc1 [AZD1208-VHL-01, N^1-((S)-1-(3-((Z)-(2,4-dioxothiazolidin-5-ylidene)methyl)-[1,1’-biphenyl]-2-yl)piperidin-3-yl)-N^8-((S)-1-((2S,4R)-4-hydroxy-2-(((S)-1-(4-(4-methylthiazol-5-yl)phenyl)ethyl)carbamoyl)pyrrolidin-1-yl)-3,3-dimethyl-1-oxobutan-2-yl)octanediamide]
- PROTAC degradation immunoblot in PC3-dox-PIM1 cells (PIM1 [3]): 6.25 µM
